{"source": "patent US10441681B2", "about": "“Materials and methods for nerve grafting” (University of Florida Research Foundation, Inc., priority 2001, dated 2019)", "test_system": "rat sciatic nerve", "assay": "Axonal regeneration into acellular interpositional nerve grafts (GAP-43 profiles)", "assay_type": "in vivo", "excerpt": "Adult (180-200 g) female SPRAGUE DAWLEY rats (HARLAN, Indianapolis, Ind.) were used as nerve donors and recipient hosts. Donor rats were anesthetized with halothane and decapitated. Sciatic nerves were exposed through a gluteal muscle-splitting incision and isolated free of underlying fascia. A 15-mm nerve segment was excised rostral to the bifurcation into common peroneal and tibial nerves. The segments were rinsed with cold sterile Ringer's solution, stabilized by pinning the ends to a thin plastic support, and transferred to a cryogenic vial. The vials were submerged in liquid nitrogen for 2 minutes and then transferred to a 37° C. water bath for 2 minutes. This freeze/thaw cycle was repeated, yielding acellular nerve grafts that were then stored in liquid nitrogen. On the day before grafting, the nerve grafts were warmed to room temperature and incubated in 100 μl phosphate buffered saline pH 7.4 (PBS) containing 2 units/ml chondroitinase ABC (SIGMA, St. Louis, Mo.) or in PBS (vehicle) only for 16 hours at 37° C. The grafts were rinsed twice with Ringer's and kept on ice prior to use. The chondroitinase ABC preparation was highly purified and stated by the manufacturer to be essentially free of protease activity.\nTwelve rats received bilateral acellular nerve grafts, one chondroitinase-treated and one vehicle-treated graft. Host rats were deeply anesthetized using xylazine (15 mg/kg, i.m.) and ketamine (110 mg/kg, i.p.). The sciatic nerve was exposed and supported by a plastic insert placed between the nerve and underlying tissue. The region of nerve halfway between the sciatic notch and bifurcation was first coated with fibrin glue. Using serrated scissors, a 2.5-mm segment of host nerve was excised and replaced with a freshly trimmed 10-mm acellular nerve graft. The graft was coapted to the host nerve stumps by epineurial neurorrhaphy using one 9-0 ETHILON suture at each end. […] The muscle was closed with 4-0 sutures and the skin with wound clips. After recovery from the anesthetic, animals were returned to standard housing.\nNine rats were terminated at 8 days and four at 4 days after grafting. Animals were deeply anesthetized and decapitated. The graft and 3 mm of proximal and distal host nerve were removed, immersed in 4% paraformaldehyde in 0.1 M phosphate buffer (pH 7.4) overnight at 4° C. The specimens were equilibrated with PBS and immersed in 30% sucrose/phosphate buffer for 2 days at 4° C. […]\nThe main grafts were sectioned serially on the transverse plane in recorded measure to assess the extent of axonal growth by microscopy. […] GAP-43-positive axon profiles were scored using IMAGE-PRO PLUS software (MEDIA CYBERNETICS, Silver Springs, Md.). […]", "data": [{"substance": "chondroitinase ABC", "values": [{"measurement": "axonal penetration vs vehicle-treated grafts", "setting": "4-day grafts, 0.3 mm from the host-graft interface, 3 animals", "value": "five-fold greater"}, {"measurement": "average number of axons (GAP-43-immunopositive profiles) entering grafts vs control grafts", "setting": "8-day acellular syngrafts, en bloc treated, n=9", "value": "more than three-fold greater"}, {"measurement": "number of axons at the distal ends of grafts vs control", "setting": "8-day grafts", "value": "a similar number of axons"}, {"measurement": "propensity of axons to grow within basal laminae", "setting": "8-day grafts, GAP-43/laminin double label", "value": "unaltered"}]}]}
